The record followed here is ChEMBL document CHEMBL1138021, “Isoxazole carboxylic acids as protein tyrosine phosphatase 1B (PTP1B) inhibitors” (Bioorg Med Chem Lett, 2004).

In assay [1] the target is T1, Tyrosine-protein phosphatase non-receptor type 1 (Mus musculus, UniProt P35821).
T1 sequence (P35821 whole entry): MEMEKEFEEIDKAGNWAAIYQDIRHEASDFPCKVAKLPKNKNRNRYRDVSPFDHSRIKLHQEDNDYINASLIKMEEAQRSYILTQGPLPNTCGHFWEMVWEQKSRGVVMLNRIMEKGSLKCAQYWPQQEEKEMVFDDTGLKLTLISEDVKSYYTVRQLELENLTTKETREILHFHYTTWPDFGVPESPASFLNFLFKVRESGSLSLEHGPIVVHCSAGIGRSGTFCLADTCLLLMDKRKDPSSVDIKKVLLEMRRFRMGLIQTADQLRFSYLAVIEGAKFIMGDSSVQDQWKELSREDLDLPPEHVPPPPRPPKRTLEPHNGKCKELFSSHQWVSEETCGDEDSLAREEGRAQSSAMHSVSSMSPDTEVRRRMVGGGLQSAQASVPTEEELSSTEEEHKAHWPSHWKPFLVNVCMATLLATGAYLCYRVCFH
As to the kind of experiment: Binding affinity for mouse protein-tyrosine phosphatase 1B (PTP1B) expressed in COS 7 cells. It is filed as cell-based.

Assay [2] addresses T2, Tyrosine-protein phosphatase non-receptor type 2 (Homo sapiens, UniProt P17706).
T2 sequence (P17706 whole entry): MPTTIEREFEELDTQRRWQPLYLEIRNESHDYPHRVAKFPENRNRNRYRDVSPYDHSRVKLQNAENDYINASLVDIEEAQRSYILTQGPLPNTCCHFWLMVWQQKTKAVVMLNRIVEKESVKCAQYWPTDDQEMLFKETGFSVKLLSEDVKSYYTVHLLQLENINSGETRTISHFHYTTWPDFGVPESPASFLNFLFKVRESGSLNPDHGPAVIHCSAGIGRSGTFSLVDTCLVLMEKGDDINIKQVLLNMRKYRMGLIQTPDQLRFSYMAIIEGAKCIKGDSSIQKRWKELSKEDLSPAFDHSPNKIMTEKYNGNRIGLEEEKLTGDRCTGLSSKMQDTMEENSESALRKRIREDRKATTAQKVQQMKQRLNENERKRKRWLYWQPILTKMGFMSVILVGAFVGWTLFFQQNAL
In words: Binding affinity for T-cell Protein tyrosine phosphatase (TCPTP).

pKi: −log10 of the molar value.

As to `COC(=O)c1c(O)cccc1OCCCc1cccc(-c2cc(C(=O)O)no2)c1`, the pKi in assay [1] was 4.64.
As to `COC(=O)c1c(O)cccc1OC/C=C/c1cccc(-c2onc(C(=O)O)c2CO)c1`, the pKi was 6.04 in assay [1] and 4.72 in assay [2].
Turning to `COC(=O)c1c(O)cccc1OC/C=C/c1ccc2c(c1)-c1onc(C(=O)O)c1CC2`, the pKi in assay [1] is 4.94.
In assay [1], `COC(=O)c1c(O)cccc1OC/C=C/c1cccc(-c2onc(C(=O)O)c2N)c1` had a pKi of 5.68.
The same measure, in the same setting: with `COC(=O)c1c(O)cccc1OCC(=O)Nc1cccc(-c2cc(C(=O)O)no2)c1` the figure was 3.67; with `COC(=O)c1c(O)cccc1OCCNc1cccc(-c2cc(C(=O)O)no2)c1`, 4.22.
Still for that read-out and setting: the figure for `COC(=O)c1c(O)cccc1OCC(O)Cc1cccc(-c2cc(C(=O)O)no2)c1` (stereo not drawn) is 3.91.
